Measurements: a compilation of properties of binary mixtures (doi:10.1021/je7001804)

Assay: xn = mol fraction of the nth substance listed
Settings: 101 kPa

CC[n+]1ccn(C)c1.O=S(=O)([O-])C(F)(F)F + CO
speed of sound [m/s]
Settings | 278.15 K | 288.15 K | 298.15 K | 308.15 K | 318.15 K
x2 = 0.0511 | 1477.5 | 1454 | 1431.1 | 1408.8 | 1387
x2 = 0.1016 | 1472 | 1448.7 | – | 1403.7 | 1382
x2 = 0.1557 | 1466.4 | 1443 | – | 1398 | 1376.2
x2 = 0.2035 | – | – | 1414.4 | 1392 | 1370.1
x2 = 0.3006 | 1447.8 | – | 1401.5 | 1379.1 | 1357.3
x2 = 0.3988 | 1432.7 | – | 1386 | 1363.4 | 1341.2
x2 = 0.5074 | 1411.3 | – | – | 1341.7 | 1319.4
x2 = 0.5993 | 1388.7 | 1364.7 | 1341.2 | 1318.2 | 1295.5
x2 = 0.6995 | 1356.5 | 1332 | 1308 | – | 1261.2
x2 = 0.8001 | 1312.5 | 1287.1 | 1262.1 | – | 1213.5
x2 = 0.8498 | 1285 | 1258.6 | 1232.8 | 1207.4 | 1182.5
x2 = 0.8995 | 1253.3 | 1225.3 | 1198 | 1171.2 | 1144.8
x2 = 0.9495 | – | 1186 | – | – | 1099.2

CC[n+]1ccn(C)c1.O=S(=O)([O-])C(F)(F)F + O
speed of sound [m/s]
Settings | 278.15 K | 288.15 K | 298.15 K | 308.15 K | 318.15 K | 328.15 K | 338.15 K
x1 = 0.0178 | 1510.5 | 1529 | 1541.8 | 1549.8 | – | 1553.1 | 1548.9
x2 = 0.0502 | 1482.9 | 1459.7 | 1437.1 | 1415 | 1393.3 | 1371.8 | –
x2 = 0.1058 | 1484.8 | 1461.7 | 1439.2 | – | 1395.5 | – | 1352.9
x2 = 0.1504 | 1486.6 | – | 1441 | 1418.9 | 1397 | – | 1354.2
x2 = 0.249 | – | 1468.2 | 1445.9 | 1424 | 1402.3 | 1380.8 | 1359.5
x2 = 0.3004 | 1494 | 1471.3 | 1449.1 | 1427.2 | – | – | –
x2 = 0.3524 | – | 1474.8 | 1452.7 | 1430.8 | 1409.2 | – | 1366.2
x2 = 0.3961 | – | 1478.3 | 1456.2 | 1434.4 | 1412.7 | 1391.2 | 1369.7
x2 = 0.4505 | 1505.3 | 1483 | – | 1439.3 | 1417.7 | 1396.2 | 1374.7
x2 = 0.5024 | 1510.7 | – | 1466.7 | – | 1423.4 | 1401.7 | 1380
x2 = 0.5502 | 1516.2 | 1494.3 | 1472.6 | 1451 | 1429.3 | – | –
x2 = 0.6 | – | 1501.1 | 1479.6 | 1458.1 | – | 1414.9 | 1393
x2 = 0.6502 | 1530.5 | 1509.2 | 1488 | 1466.7 | 1445.3 | 1423.6 | 1401.7
x2 = 0.702 | 1539.8 | 1519.2 | 1498.4 | – | 1456.1 | 1434.6 | 1412.9
x2 = 0.7493 | 1549 | 1529.2 | 1509.1 | – | 1467.8 | 1446.5 | 1424.7
x2 = 0.7998 | – | – | 1522.5 | 1503.1 | 1483 | 1462.2 | 1440.7
x2 = 0.8499 | 1569.5 | 1554.1 | 1537.6 | 1520.1 | 1501.5 | 1482 | –
x2 = 0.8996 | – | 1564.9 | 1552.9 | 1539.1 | 1523.7 | 1506.7 | 1488.2
x2 = 0.9498 | – | 1563.7 | 1561.1 | 1555.7 | 1547.7 | 1537.1 | 1524.2

CC[n+]1ccn(C)c1.O=S(=O)([O-])C(F)(F)F + CCCO
speed of sound [m/s]
Settings | 278.15 K | 288.15 K | 298.15 K | 308.15 K | 318.15 K | 328.15 K | 338.15 K
x2 = 0.049 | 1475.1 | 1451.2 | 1428.3 | 1405.9 | – | 1362.5 | 1341.4
x2 = 0.1095 | 1465.8 | 1441.9 | 1419 | – | 1374.5 | – | 1331.7
x2 = 0.1497 | 1459 | 1435.5 | 1412.7 | 1390.3 | 1368.2 | – | 1325.3
x2 = 0.2004 | 1450.3 | 1426.7 | – | – | 1359.3 | 1337.6 | 1316.5
x2 = 0.3 | 1432.3 | 1408.4 | 1385.2 | 1362.3 | 1340 | 1317.9 | 1296.2
x2 = 0.3993 | – | 1388 | 1364.3 | 1341.1 | 1318.4 | 1295.9 | 1273.9
x2 = 0.499 | 1389.2 | 1364.6 | 1340.5 | 1316.9 | 1293.6 | 1270.7 | 1248.1
x2 = 0.6007 | 1363.1 | 1337.9 | 1313.4 | 1289.2 | – | 1241.7 | 1218.3
x2 = 0.6998 | 1335.8 | – | 1284.3 | – | 1234.2 | 1209.5 | 1185
x2 = 0.7996 | 1308.3 | – | 1253.7 | 1227 | 1200.5 | 1174.3 | 1148.2
x2 = 0.8496 | 1296 | 1267.3 | 1239.2 | 1211.4 | 1183.8 | 1156.5 | 1129.3
x2 = 0.8999 | 1286.3 | 1255.9 | 1226.3 | 1197.1 | 1168.1 | 1139.2 | –
x2 = 0.9499 | 1279.8 | 1247.3 | 1215.6 | – | – | – | 1092

CC[n+]1ccn(C)c1.O=S(=O)([O-])C(F)(F)F + CCO
speed of sound [m/s]
Settings | 278.15 K | 288.15 K | 298.15 K | 308.15 K | 318.15 K | 328.15 K
x2 = 0.0508 | 1475.9 | 1452.2 | 1429.4 | 1407 | 1385.2 | 1363.9
x2 = 0.0983 | – | – | 1422.7 | 1400.4 | – | 1357.6
x2 = 0.1483 | 1461.9 | 1438.3 | – | 1393.1 | 1371.1 | 1349.8
x2 = 0.198 | – | 1430.7 | – | – | – | –
x2 = 0.3072 | 1435.9 | – | 1389.3 | 1366.7 | 1344.6 | –
x2 = 0.4068 | 1416.2 | 1392.4 | 1369.2 | 1346.4 | 1323.9 | 1301.8
x2 = 0.4985 | 1394.8 | 1370.6 | 1346.9 | 1323.6 | – | –
x2 = 0.5999 | 1366.8 | – | 1318 | 1294.2 | – | 1247.7
x2 = 0.6991 | – | 1308.5 | 1283.7 | 1259.2 | 1235.1 | 1211.2
x2 = 0.8001 | – | – | 1241.7 | 1215.7 | 1189.9 | 1164.3
x2 = 0.8497 | 1273.5 | 1245.6 | 1218.2 | – | 1164.7 | 1138.4
x2 = 0.9 | 1252.7 | 1223.1 | – | – | 1137.5 | –
x2 = 0.9501 | 1233 | 1201.1 | 1170.1 | 1139.4 | 1109.1 | 1079.2
